Literature values as cited in US20070082063A1, “Risk assessment and correction of membrane damage of the upper GI tract” (priority 2005, published 2007).

Assays:
[1] = animals with reduced membrane arachidonate
[2] = humans or animals with normal membrane arachidonate content

Row | Compound | effect on membrane arachidonate content [1] | effect on serum or tissue arachidonate content [2]
1 | CCCCC/C=C\C/C=C\C/C=C\CCCCC(=O)O [GLA, gamma-linolenic acid] | significantly increase | –
2 | CCCCC/C=C\C/C=C\C/C=C\C/C=C\CCCC(=O)O [ARA, arachidonic acid] | – | little effect
